Experimental data: patent publication US20260355196A1, “INHIBITORS AND DEGRADERS OF PIP4K PROTEIN” (Larkspur Biosciences, Inc., priority 2023, published 2026)

Target: T1, PIP4K2C (Homo sapiens, UniProt Q8TBX8)
T1 sequence (Q8TBX8 1-421): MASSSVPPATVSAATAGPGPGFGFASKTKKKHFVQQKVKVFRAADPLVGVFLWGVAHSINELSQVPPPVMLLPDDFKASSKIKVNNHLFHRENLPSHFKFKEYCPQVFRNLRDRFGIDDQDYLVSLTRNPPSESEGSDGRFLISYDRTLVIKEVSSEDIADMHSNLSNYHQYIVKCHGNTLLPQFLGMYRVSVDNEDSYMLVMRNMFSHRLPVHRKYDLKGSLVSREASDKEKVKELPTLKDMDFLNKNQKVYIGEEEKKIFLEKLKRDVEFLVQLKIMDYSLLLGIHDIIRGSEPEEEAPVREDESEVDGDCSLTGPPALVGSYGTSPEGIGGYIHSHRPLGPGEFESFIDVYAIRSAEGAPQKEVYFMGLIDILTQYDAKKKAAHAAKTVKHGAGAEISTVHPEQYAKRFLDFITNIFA
Assay: Enzyme Binding Assay (KINOMEscan): active site-directed competition binding to an immobilized ligand
Set-up: purchased Eurofins DiscoverX, San Diego, CA 87-0007-1094
Settings: 11-point dose response, duplicate, top concentration 5 micromolar; read-out: Pip4k2c Kd: IC50
Protocol: Example B-1: Enzyme Binding Assays (KINOMEscan)
PIP4K2C binding constants disclosed herein were determined using the proprietary Human PIP4K2C binding assay (Catalog number 87-0007-1094, Eurofins DiscoverX, San Diego, CA). This assay measures active site-directed competition binding to an immobilized ligand (see https://doi.org/10.1038/nbt1068, herein incorporated by reference in its entirety). Experiments were conducted using an 11-point dose response curve, in duplicate, with a top starting concentration of 5 micromolar; the Levenberg-Marquardt algorithm was used to fit a Hill equation to dose-response data to calculate IC50 values (see Table 5).

Compound	IC50
O=C(CCC1CCNCC1)N1CCC(Nc2ncc(Cl)c(-c3cccc(-c4ccccc4)c3)n2)CC1 [Compound 7, 1-(4-((4-([1,1′-biphenyl]-3-yl)-5-chloropyrimidin-2-yl)amino)piperidin-1-yl)-3-(piperidin-4-yl)propan-1-one]	< 500 nM
CC(=O)N1CCC(CCC(=O)N2CCC(Nc3ncc(Cl)c(-c4cccc(-c5ccccc5)c4)n3)CC2)CC1 [Compound 8, 1-(4-((4-([1,1′-biphenyl]-3-yl)-5-chloropyrimidin-2-yl)amino)piperidin-1-yl)-3-(1-acetylpiperidin-4-yl)propan-1-one]	< 500 nM
CN1CCC(CC(=O)N2CCC(Nc3ncc(Cl)c(-c4cccc(-c5ccccc5)c4)n3)CC2)CC1 [Compound 9, 1-(4-((4-([1,1′-biphenyl]-3-yl)-5-chloropyrimidin-2-yl)amino)piperidin-1-yl)-2-(1-methylpiperidin-4-yl)ethan-1-one]	< 500 nM
CN1CCC(CCC(=O)N2CCC(Nc3ncc(Cl)c(-c4cccc(-c5ccccc5)c4)n3)CC2)CC1 [Compound 10, 1-(4-((4-([1,1′-biphenyl]-3-yl)-5-chloropyrimidin-2-yl)amino)piperidin-1-yl)-3-(1-methylpiperidin-4-yl)propan-1-one]	< 500 nM
O=C(C1CCC2(CCNCC2)CC1)N1CCC(Nc2ncc(Cl)c(-c3cccc(-c4ccccc4)c3)n2)CC1 [Compound 11, (4-((4-([1,1′-biphenyl]-3-yl)-5-chloropyrimidin-2-yl)amino)piperidin-1-yl)(3-azaspiro[5.5]undecan-9-yl)methanone]	< 500 nM
CN1CCC2(CCC(C(=O)N3CCC(Nc4ncc(Cl)c(-c5cccc(-c6ccccc6)c5)n4)CC3)CC2)CC1 [Compound 12, (4-((4-([1,1′-biphenyl]-3-yl)-5-chloropyrimidin-2-yl)amino)piperidin-1-yl)(3-methyl-3-azaspiro[5.5]undecan-9-yl)methanone]	< 500 nM
CC(=O)N1CCC2(CCC(C(=O)N3CCC(Nc4ncc(Cl)c(-c5cccc(-c6ccccc6)c5)n4)CC3)CC2)CC1 [Compound 13, 1-(9-(4-((4-([1,1′-biphenyl]-3-yl)-5-chloropyrimidin-2-yl)amino)piperidine-1-carbonyl)-3-azaspiro[5.5]undecan-3-yl)ethan-1-one]	< 500 nM
CN1CC(Nc2ncc(Cl)c(-c3cccc(-c4ccccc4)c3)n2)CCC1=O (centres unmarked) [Compound 14, 5-((4-([1,1′-biphenyl]-3-yl)-5-chloropyrimidin-2-yl)amino)-1-methylpiperidin-2-one]	< 500 nM
O=C1CC(Nc2ncc(Cl)c(-c3cccc(-c4ccccc4)c3)n2)CCN1 (centres unmarked) [Compound 15, 4-((4-([1,1′-biphenyl]-3-yl)-5-chloropyrimidin-2-yl)amino)piperidin-2-one]	< 500 nM
CN1CCC(Nc2ncc(Cl)c(-c3cccc(-c4ccccc4)c3)n2)CC1=O (centres unmarked) [Compound 16, 4-((4-([1,1′-biphenyl]-3-yl)-5-chloropyrimidin-2-yl)amino)-1-methylpiperidin-2-one]	< 500 nM
O=C1CCC(Nc2ncc(Cl)c(-c3cccc(-c4ccccc4)c3)n2)CN1 (centres unmarked) [Compound 17, 5-((4-([1,1′-biphenyl]-3-yl)-5-chloropyrimidin-2-yl)amino)piperidin-2-one]	< 500 nM
CC(=O)N1CCC[C@H](Nc2ncc(Cl)c(-c3cccc(-c4ccccc4)c3)n2)C1 [Compound 18, (S)-1-(3-((4-([1,1′-biphenyl]-3-yl)-5-chloropyrimidin-2-yl)amino)piperidin-1-yl)ethan-1-one]	< 500 nM
NC(=O)[C@H]1CC[C@H](Nc2ncc(Cl)c(-c3cccc(-c4ccccc4)c3)n2)CC1 [Compound 19, trans-4-((4-([1,1′-biphenyl]-3-yl)-5-chloropyrimidin-2-yl)amino)cyclohexane-1-carboxamide]	< 500 nM
CC(=O)N1CCC[C@H](Nc2ncc(Cl)c(N3CCC(c4ccccc4)C3)n2)C1 (stereo partly drawn) [Compound 20, 1-((3S)-3-((5-chloro-4-(3-phenylpyrrolidin-1-yl)pyrimidin-2-yl)amino)piperidin-1-yl)ethan-1-one]	1000 to 5000 nM
CC(=O)N1CCCC(Nc2ncc(Cl)c(-c3cccc(-c4ccccc4)c3)n2)C1 (centres unmarked) [Compound 21, 1-(3-((4-([1,1′-biphenyl]-3-yl)-5-chloropyrimidin-2-yl)amino)piperidin-1-yl)ethan-1-one]	< 500 nM
NC(=O)C1CCCC(Nc2ncc(Cl)c(-c3cccc(-c4ccccc4)c3)n2)C1 (centres unmarked) [Compound 22, 3-((4-([1,1′-biphenyl]-3-yl)-5-chloropyrimidin-2-yl)amino)cyclohexane-1-carboxamide]	< 500 nM

The remaining lines, values ahead:

IC50	Compound
< 500 nM	CC(=O)N1CCC(Nc2ncc(Cl)c(-c3cccc(-c4ccccc4)c3)n2)CC1 [Compound 23, 1-(4-((4-([1,1′-biphenyl]-3-yl)-5-chloropyrimidin-2-yl)amino)piperidin-1-yl)ethan-1-one]
1000 to 5000 nM	CC(=O)N1CCC(Nc2ncc(Cl)c(N3CCCCC3)n2)CC1 [Compound 24, 1-(4-((5-chloro-4-(piperidin-1-yl)pyrimidin-2-yl)amino)piperidin-1-yl)ethan-1-one]
500 to 1000 nM	NC(=O)[C@H]1CC[C@@H](Nc2ncc(Cl)c(-c3ccc(F)cc3)n2)CC1 [Compound 25, cis-4-((5-chloro-4-(4-fluorophenyl)pyrimidin-2-yl)amino)cyclohexane-1-carboxamide]
500 to 1000 nM	CC(=O)N1CCCC(Nc2ncc(Cl)c(-c3ccc(F)cc3)n2)C1 (centres unmarked) [Compound 26, 1-(3-((5-chloro-4-(4-fluorophenyl)pyrimidin-2-yl)amino)piperidin-1-yl)ethan-1-one]
500 to 1000 nM	CC(=O)N1CCC(Nc2ncc(Cl)c(-c3ccc(F)cc3)n2)CC1 [Compound 27, 1-(4-((5-chloro-4-(4-fluorophenyl)pyrimidin-2-yl)amino)piperidin-1-yl)ethan-1-one]
1000 to 5000 nM	CC(=O)N1CCC[C@H](Nc2ncc(Cl)c(N3CCC(c4ccccn4)C3)n2)C1 (stereo partly drawn) [Compound 29, 1-((3S)-3-((5-chloro-4-(3-(pyridin-2-yl)pyrrolidin-1-yl)pyrimidin-2-yl)amino)piperidin-1-yl)ethan-1-one]
< 500 nM	CC(=O)N1CCC(Nc2ncc(Cl)c(C3CCN(c4ccccc4)C3)n2)CC1 (centres unmarked) [Compound 30, 1-(4-((5-chloro-4-(1-phenylpyrrolidin-3-yl)pyrimidin-2-yl)amino)piperidin-1-yl)ethan-1-one]
500 to 1000 nM	CC(=O)N[C@H]1CC[C@@H](Nc2ncc(Cl)c(-c3cccc(-c4ccccc4)c3)n2)CC1 [Compound 31, N-(cis-4-((4-([1,1′-biphenyl]-3-yl)-5-chloropyrimidin-2-yl)amino)cyclohexyl)acetamide]
< 500 nM	CC(=O)N[C@H]1CC[C@H](Nc2ncc(Cl)c(-c3cccc(-c4ccccc4)c3)n2)CC1 [Compound 32, N-(trans-4-((4-([1,1′-biphenyl]-3-yl)-5-chloropyrimidin-2-yl)amino)cyclohexyl)acetamide]
< 500 nM	CC(=O)N1CCC[C@H](Nc2ncc(Cl)c(N3CCCC(c4ccccc4)C3)n2)C1 (stereo partly drawn) [Compound 35, 1-((3S)-3-((5-chloro-4-(3-phenylpiperidin-1-yl)pyrimidin-2-yl)amino)piperidin-1-yl) ethan-1-one]
< 500 nM	CC(=O)N1CCC[C@H](Nc2ncc(Cl)c(-c3cccc(N4CCCCC4)c3)n2)C1 [Compound 37, (S)-1-(3-((5-chloro-4-(3-(piperidin-1-yl)phenyl)pyrimidin-2-yl)amino)piperidin-1-yl)ethan-1-one]
< 500 nM	CC(=O)N1CCC[C@H](Nc2ncc(Cl)c(-c3cccc(C4CCCCC4)c3)n2)C1 [Compound 39, (S)-1-(3-((5-chloro-4-(3-cyclohexylphenyl)pyrimidin-2-yl)amino)piperidin-1-yl)ethan-1-one]
< 500 nM	NC(=O)C1CCCC(Nc2ncc(F)c(-c3cccc(-n4ccccc4=O)c3)n2)C1 (centres unmarked) [Compound 40, 3-[[5-fluoro-4-[3-(2-oxo-1-pyridyl)phenyl]pyrimidin-2-yl]amino]cyclohexanecarboxamide]
< 500 nM	CNC(=O)[C@H]1CC[C@H](Nc2ncc(Cl)c(-c3cccc(-c4cccc(=O)[nH]4)c3)n2)CC1 [Compound 92, trans-(1r,4r)-4-((5-chloro-4-(3-(6-oxo-1,6-dihydropyridin-2-yl)phenyl)pyrimidin-2-yl)amino)-N-methylcyclohexane-1-carboxamide]
< 500 nM	CC(=O)N[C@H]1CC[C@@H](Nc2ncc(Cl)c(-c3cccc(-n4ccccc4=O)c3)n2)CC1 [Compound 93, cis-N-((1s,4s)-4-((5-chloro-4-(3-(2-oxopyridin-1 (2H)-yl)phenyl)pyrimidin-2-yl)amino)cyclohexyl)acetamide]
< 500 nM	CNC(=O)[C@H]1C[C@@H](Nc2ncc(Cl)c(-c3cccc(-n4ccccc4=O)c3)n2)C1 [Compound 94, cis-3-((5-chloro-4-(3-(2-oxopyridin-1 (2H)-yl)phenyl)pyrimidin-2-yl)amino)-N-methylcyclobutane-1-carboxamide]
